Usually GI50 stands for the concentration that inhibits growth by half. Usually IC50 stands for the concentration that inhibits the measured activity by half. Broadly, the inhibition is the drop in the measured response relative to a control, in per cent.

The results in this text go back to patent US7671054B1, “Reverse-turn mimetics and method relating thereto” (Choongwae Pharma Corporation, priority 2001, dated 2010).

The test system of one test is HCT116 cells. In words: Growth inhibition assay (MTS). The test is classed as cell-based. The conditions noted are these: Homo sapiens, HCT-116, 48 h, Table 5; HCT116 cells, 48 hours treatment, MTS; read-out: Growth Inhibition (GI50, uM) HCT116. Summed up:
(§1)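 Cells seeded at 10^4 per well, grown 24 h at 37° C, then exposed to compound at various concentrations for 48 hours. MTS added for 2 h; absorbance at 490 nm gave viability, with cytotoxicity calculated per concentration against pre-treatment reading.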
For `CN1CC(=O)N2C(CN(Cc3cc(F)c(F)c(F)c3)C(=O)[C@@H]2Cc2ccc(O)cc2)N1C(=O)NCc1ccccc1` (stereo in doubt) [Compound 16], the GI50 was 2.95 µM.

Take `C=CCN1CC(=O)N2[C@@H](Cc3ccc(O)cc3)C(=O)N(Cc3cccc(OC(F)(F)F)c3)C[C@@H]2N1C(=O)NCc1ccccc1` [Compound 176]: the GI50 is 1.7 ± 0.1 µM.

As for `COc1ccccc1CN1C[C@H]2N(C(=O)CN(C)N2C(=O)NCc2ccccc2)[C@@H](Cc2ccc(O)cc2)C1=O` [Compound 2], the GI50 came out at 2.23 µM.

Regarding `CN1CC(=O)N2[C@@H](Cc3ccc(O)cc3)C(=O)N(Cc3ccc(Cl)cc3)C[C@@H]2N1C(=O)NCc1ccccc1` [Compound 3], the GI50 was 2.39 µM.

On to `C=CCN1CC(=O)N2[C@@H](Cc3ccc(O)cc3)C(=O)N([C@H](C)c3ccccc3)C[C@@H]2N1C(=O)NCc1ccccc1` [Compound 153], for which the GI50 was found to be 14.3 ± 7 µM.

Regarding `C=CCN1CC(=O)N2[C@@H](Cc3ccc(O)cc3)C(=O)N(Cc3cccc4cccnc34)C[C@@H]2N1C(=O)NCc1ccc(Cl)c(Cl)c1` [Compound 169], the GI50 is 1 ± 0.2 µM.

In the case of `C=CCN1CC(=O)N2[C@@H](Cc3ccc(O)cc3)C(=O)N(Cc3cccc4sc(N5CCOCC5)nc34)C[C@@H]2N1C(=O)NCc1ccccc1` [Compound 189], the GI50 stood at 1.2 ± 0.1 µM.

In the case of `C#CCN1CC(=O)N2[C@@H](Cc3ccc(O)cc3)C(=O)N(Cc3ccc4c(c3)OCCO4)C[C@@H]2N1C(=O)NCc1ccccc1` [Compound 107], the GI50 came out at 1.6 ± 0.1 µM.

Regarding `C=CCN1CC(=O)N2[C@@H](CC3(O)C=CC(=O)C=C3)C(=O)N(Cc3ccc(F)cc3F)C[C@@H]2N1C(=O)NCc1ccccc1` [Compound 151], the GI50 is 8.6 ± 0.9 µM.

The same test, now with this note: Homo sapiens, HCT-116; Table 5; HCT116 cells, 48 hours treatment, MTS; read-out: Growth Inhibition (GI50, uM) HCT116.
Consider `C=CCN1CC(=O)N2[C@@H](Cc3ccc(OP(=O)(O)O)cc3)C(=O)N(Cc3cc(F)c(F)cc3N(C)C)C[C@@H]2N1C(=O)NCc1ccccc1` [Compound 133], for which the GI50 turned out to be 2.1 ± 1.8 µM.

In the case of `CN1CC(=O)N2[C@@H](Cc3ccc(O)cc3)C(=O)N(Cc3ccccc3C(F)(F)F)C[C@@H]2N1C(=O)NCc1ccccc1` [Compound 10], the GI50 was 1.66 µM.

For a further test, the system named is SW480 cells. The test is described as follows: Growth inhibition assay (MTS). In kind it is cell-based. The conditions noted are these: Homo sapiens, SW480, 48 h, Table 5; SW480 cells, 48 hours treatment, MTS; read-out: Growth Inhibition (GI50, uM) SW480. Summed up:
as §1
Take `CN1CC(=O)N2C(CN(Cc3cc(F)c(F)c(F)c3)C(=O)[C@@H]2Cc2ccc(O)cc2)N1C(=O)NCc1ccccc1` (stereo in doubt) [Compound 16]: the GI50 was 4.18 µM.

As for `C=CCN1CC(=O)N2[C@@H](Cc3ccc(O)cc3)C(=O)N(Cc3cccc(OC(F)(F)F)c3)C[C@@H]2N1C(=O)NCc1ccccc1` [Compound 176], the GI50 is 1.7 ± 0.2 µM.

Consider `COc1ccccc1CN1C[C@H]2N(C(=O)CN(C)N2C(=O)NCc2ccccc2)[C@@H](Cc2ccc(O)cc2)C1=O` [Compound 2], for which the GI50 worked out at 2.58 µM.

Turning to `CN1CC(=O)N2[C@@H](Cc3ccc(O)cc3)C(=O)N(Cc3ccc(Cl)cc3)C[C@@H]2N1C(=O)NCc1ccccc1` [Compound 3], the GI50 was determined as 2.73 µM.

Consider `C=CCN1CC(=O)N2[C@@H](Cc3ccc(O)cc3)C(=O)N([C@H](C)c3ccccc3)C[C@@H]2N1C(=O)NCc1ccccc1` [Compound 153], for which the GI50 came out at 12.8 ± 1.6 µM.

Consider `C=CCN1CC(=O)N2[C@@H](Cc3ccc(O)cc3)C(=O)N(Cc3cccc4cccnc34)C[C@@H]2N1C(=O)NCc1ccc(Cl)c(Cl)c1` [Compound 169], for which the concentration for 50% growth inhibition (GI50) was determined as 0.8 ± 0.1 µM.

For the molecule `C=CCN1CC(=O)N2[C@@H](Cc3ccc(O)cc3)C(=O)N(Cc3cccc4sc(N5CCOCC5)nc34)C[C@@H]2N1C(=O)NCc1ccccc1` [Compound 189], the GI50 came to 1 ± 0.1 µM.

As for `C#CCN1CC(=O)N2[C@@H](Cc3ccc(O)cc3)C(=O)N(Cc3ccc4c(c3)OCCO4)C[C@@H]2N1C(=O)NCc1ccccc1` [Compound 107], the GI50 is 1.6 ± 0.1 µM.

As for `C=CCN1CC(=O)N2[C@@H](CC3(O)C=CC(=O)C=C3)C(=O)N(Cc3ccc(F)cc3F)C[C@@H]2N1C(=O)NCc1ccccc1` [Compound 151], the GI50 is 11.2 ± 1.3 µM.

The same test, now with this note: Homo sapiens; Table 5; SW480 cells, 48 hours treatment, MTS; read-out: Growth Inhibition (GI50, uM) SW480.
As for `C=CCN1CC(=O)N2[C@@H](Cc3ccc(OP(=O)(O)O)cc3)C(=O)N(Cc3cc(F)c(F)cc3N(C)C)C[C@@H]2N1C(=O)NCc1ccccc1` [Compound 133], the GI50 stood at 2.3 ± 0.1 µM.

`CN1CC(=O)N2[C@@H](Cc3ccc(O)cc3)C(=O)N(Cc3ccccc3C(F)(F)F)C[C@@H]2N1C(=O)NCc1ccccc1` [Compound 10]: the concentration for 50% growth inhibition (GI50) was 2.34 µM.

The subject of the next test is TCF4/β-catenin transcription (TOPFlash) in SW480 cells. In words: Reporter gene assay (TOPFlash luciferase). Particulars: Homo sapiens, SW480, Table 4; Reporter gene assay as described in Example 6; read-out: IC50. In kind it is cell-based. In outline:
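SW480 cells transiently co-transfected with TOPFlash and pRL-null (4:1 µg) using Superfect, then reseeded at 3×10^4 cells/well and incubated overnight at 37 °C. Compound treatment lasted 24 h before luciferase read-out.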
For `CN1CC(=O)N2C(CN(Cc3cc(F)c(F)c(F)c3)C(=O)[C@@H]2Cc2ccc(O)cc2)N1C(=O)NCc1ccccc1` (stereo in doubt) [Compound 16], the IC50 is 3.8 µM.

For a further test, the system named is Survivin. The test is described as follows: Effect on survivin expression (Table 9). In kind it is cell-based. The conditions noted are these: 5 uM. The text has this:
(§2) The effects of various compounds having general formula (I) on survivin and TCF4 expression were characterized.
In turn, `CN(C)c1cc(F)ccc1CN1C[C@@H]2N(C(=O)CN(C)N2C(=O)NCc2ccccc2)[C@@H](Cc2ccc(O)cc2)C1=O` came in with an inhibition at 5 µM of 79%.

`CN1CC(=O)N2[C@@H](CN(Cc3ccc(F)cc3C(F)(F)F)C(=O)[C@@H]2Cc2ccc(O)cc2)N1C(=O)NCc1ccccc1` registered an inhibition at 5 µM of 0%.

On to `CN1CC(=O)N2C(Cc3ccc(O)cc3)C(=O)N(Cc3ccc(F)cc3F)CC2N1C(=O)NCc1ccccc1` (centres unmarked), for which testing at 5 µM gave an inhibition of 51%.

Molecule `CN(C)c1c(Cl)cccc1CN1C[C@@H]2N(C(=O)CN(C)N2C(=O)NCc2ccccc2)[C@@H](Cc2ccc(O)cc2)C1=O` registered an inhibition at 5 µM of 0%.

Still in this test, the particulars now being: 25 uM.
In turn, `CN(C)c1cc(F)ccc1CN1C[C@@H]2N(C(=O)CN(C)N2C(=O)NCc2ccccc2)[C@@H](Cc2ccc(O)cc2)C1=O` came in with an inhibition at 25 µM of 81%.

For the molecule `CN1CC(=O)N2[C@@H](CN(Cc3ccc(F)cc3C(F)(F)F)C(=O)[C@@H]2Cc2ccc(O)cc2)N1C(=O)NCc1ccccc1`, the inhibition at 25 µM is 80%.

As to `CN1CC(=O)N2C(Cc3ccc(O)cc3)C(=O)N(Cc3ccc(F)cc3F)CC2N1C(=O)NCc1ccccc1` (centres unmarked), the inhibition at 25 µM is 93%.

As for `CN(C)c1c(Cl)cccc1CN1C[C@@H]2N(C(=O)CN(C)N2C(=O)NCc2ccccc2)[C@@H](Cc2ccc(O)cc2)C1=O`, the inhibition at 25 µM stood at 21%.

In a further test the test system is TCF4. In words: Effect on TCF4 expression (Table 9). The test is classed as cell-based.
Settings: not given
Text: as §2
For the molecule `CN(C)c1cc(F)ccc1CN1C[C@@H]2N(C(=O)CN(C)N2C(=O)NCc2ccccc2)[C@@H](Cc2ccc(O)cc2)C1=O`, the IC50 turned out to be 1.7 ± 0.2 µM.

For `CN1CC(=O)N2[C@@H](CN(Cc3ccc(F)cc3C(F)(F)F)C(=O)[C@@H]2Cc2ccc(O)cc2)N1C(=O)NCc1ccccc1`, the IC50 is 1.3 ± 0.1 µM.

On to `CN1CC(=O)N2C(Cc3ccc(O)cc3)C(=O)N(Cc3ccc(F)cc3F)CC2N1C(=O)NCc1ccccc1` (centres unmarked), for which the concentration for half-maximal inhibition (IC50) is approximately 6.3 µM.

`CN(C)c1c(Cl)cccc1CN1C[C@@H]2N(C(=O)CN(C)N2C(=O)NCc2ccccc2)[C@@H](Cc2ccc(O)cc2)C1=O` gave an IC50 of 7.3 ± 1.1 µM.
